Results as given in patent US20220346382A1, “COMPOSITION FOR TREATING AND PREVENTING BACTERIAL GROWTH ON A SUBSTRATE” (PETROLIAM NASIONAL BERHAD (PETRONAS), priority 2019, published 2022).

What was measured:
[1] = tested on: bacteria of produced water sample B04S; assay: Cell dry weight of cultured formulations (NACE TM0194-2014); assay type: cell-based; conditions: Day 7, ambient temperature, static
From the text: Bacteria were isolated from produced water samples from an oil field (denoted as samples B04S and B24) in accordance with NACE TM0194-2014.
In sample B04S, Bacillus sp., Bacillus thuringiensis and Marine actinomycetes were identified. In sample B24, Bacillus thuringiensis and Marine actinomycetes were identified. Marine actinomycete was identified to be the main species that support biofilm stability and a growth environment for other species including sulphate-reducing bacteria (SRB).
(§1) Formulations were prepared by mixing the listed chemical components in the stated concentrations with produced water sample BO4S in a flask (Table 1). These formulations were tested in subsequent examples for biocide activity.
The formulations in Example 1 were cultured for seven days at ambient temperatures and static conditions in glass vials. Subsequently the cell dry weight of the formulations was quantified in accordance with NACE TM0194-2014. The cell dry weight for each formulation was reported in and/or converted to g/mL for comparison (FIG. 1).

[2] = tested on: bacteria of produced water sample B04S; assay: Viable cell count from suspension cells by hemocytometer (ASTM E 2315-03); assay type: cell-based
Method: as §1
In a typical procedure, a glass hemocytometer and coverslip was cleaned with alcohol prior to use. The coverslip was moisturised with water and affixed to the hemocytometer. The presence of Newton's refraction rings under the coverslip indicated proper adhesion.
The flasks containing the formulations were gently swirled to ensure that the cells were evenly distributed. Before the cells settled to the bottom of the flasks, 0.5 mL of a cell suspension was transferred out to an Eppendorf tube using a 5 mL sterile pipette. Trypan blue (three to five drops) was added to the tube. 100 μL of the Trypan blue-treated cell suspension was pipetted and transferred to the hemocytometer. If a glass hemocytometer was used, both chambers were gently filled underneath the coverslip, allowing the cell suspension to be drawn out by capillary action. If a disposable hemocytometer was used, the cell suspension was pipetted into the well of the counting chamber, allowing capillary action to draw it inside. A microscope was used to focus on the grid lines of the hemocytometer with a 10× objective.

N[C@H](Cc1c[nH]c2ccccc12)C(=O)O [TT, D-Tryptophan]
lower cell dry weight as compared to formulation THPS [1]: 40%
lower cell count as compared to THPS only ([2]; Day 5, sample B04S): 77%
lower cell count as compared to THPS only ([2]; Day 7, sample B04S): 78%

tetrakis hydroxymethyl phosphonium sulfate [THPS, reference compound]
suppression of bacteria growth ([2]; 100 ppm, Day 7): could not suppress bacteria growth
